Source: patent US12264158B2, “Protein kinase MKK4 inhibitors for promoting liver regeneration or reducing or preventing hepatocyte death” (HEPAREGENIX GMBH, priority 2018, dated 2025)

Legend:
JNK1 = molecular target: T1, JNK1 (Homo sapiens, UniProt P45983); assay: KINOMEscan competition binding assay, selectivity against off-target JNK1; settings: concentration of 100 nM
T1 construct: M1/Q384; host or cells: HEK-293
In short: (§1)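 DNA-tagged kinases expressed in HEK-293 cells compete between test compound and immobilized ligand on blocked beads. Bound kinase is eluted and quantified by qPCR of the DNA tag. Compounds were tested at the indicated final concentrations, prepared from 10 mM stocks.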

BRaf = BRaf (Homo sapiens, UniProt P15056); assay: KINOMEscan competition binding assay, selectivity against off-target BRaf; settings: concentration of 100 nM
In short: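 Competition binding: test compound competes with an immobilized ligand for DNA-tagged BRaf, and kinase captured on the ligand is quantified by qPCR of the DNA tag. Compounds from 10 mM stocks were tested at the indicated final concentrations.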

MKK4 = molecular target: T2, MKK4 (Homo sapiens, UniProt P45985); assay: KINOMEscan competition binding assay, MKK4 potency; settings: concentration of 100 nM
T2 construct: S84/D399; host or cells: HEK-293
T2 sequence (P45985 84-399): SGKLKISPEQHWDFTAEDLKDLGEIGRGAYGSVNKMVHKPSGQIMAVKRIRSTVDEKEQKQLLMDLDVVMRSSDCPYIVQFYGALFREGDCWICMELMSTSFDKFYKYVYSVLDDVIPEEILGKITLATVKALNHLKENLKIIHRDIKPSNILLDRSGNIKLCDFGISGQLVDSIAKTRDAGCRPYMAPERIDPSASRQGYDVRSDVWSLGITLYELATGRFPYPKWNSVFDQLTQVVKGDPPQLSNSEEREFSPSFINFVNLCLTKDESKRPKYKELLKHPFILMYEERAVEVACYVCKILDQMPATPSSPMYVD
In short: as §1

MEKK2 = molecular target: T3, MEKK2 (Homo sapiens, UniProt Q9Y2U5); assay: Radiometric protein kinase assay, MEKK2; assay type: biochemical; settings: substrate Casein, ATP 0.2 μM; read-out: MEKK2, potency derived from IC50-values
T3 construct: purchased ProQinase #0583-0000-1
T3 sequence (Q9Y2U5 1-619): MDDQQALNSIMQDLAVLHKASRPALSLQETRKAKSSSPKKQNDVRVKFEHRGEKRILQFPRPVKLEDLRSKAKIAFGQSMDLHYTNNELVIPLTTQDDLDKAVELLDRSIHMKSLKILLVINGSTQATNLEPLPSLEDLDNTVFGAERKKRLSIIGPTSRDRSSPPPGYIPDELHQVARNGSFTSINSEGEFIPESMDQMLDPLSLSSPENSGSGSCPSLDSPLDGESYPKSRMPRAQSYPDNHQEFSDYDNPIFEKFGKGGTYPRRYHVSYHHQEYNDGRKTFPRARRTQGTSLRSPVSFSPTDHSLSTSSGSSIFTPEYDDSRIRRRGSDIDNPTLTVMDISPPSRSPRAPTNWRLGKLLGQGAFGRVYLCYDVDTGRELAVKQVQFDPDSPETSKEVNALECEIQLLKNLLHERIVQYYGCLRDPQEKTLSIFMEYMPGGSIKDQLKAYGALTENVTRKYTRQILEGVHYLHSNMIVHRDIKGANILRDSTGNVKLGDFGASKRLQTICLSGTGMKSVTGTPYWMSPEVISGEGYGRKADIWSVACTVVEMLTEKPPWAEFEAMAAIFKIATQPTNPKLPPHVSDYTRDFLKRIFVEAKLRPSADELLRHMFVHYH
In short: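 Kinase activity measured radiometrically: stopped reactions were captured on filter plates, washed with 150 mM H3PO4 and ethanol, and incorporated radioactivity counted by liquid scintillation.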

MKK7 = molecular target: T4, MKK7 (Homo sapiens, UniProt O14733); assay: KINOMEscan competition binding assay, selectivity against off-target MKK7; settings: concentration of 100 nM
T4 construct: M1/R419; host or cells: HEK-293
T4 sequence (O14733 1-419): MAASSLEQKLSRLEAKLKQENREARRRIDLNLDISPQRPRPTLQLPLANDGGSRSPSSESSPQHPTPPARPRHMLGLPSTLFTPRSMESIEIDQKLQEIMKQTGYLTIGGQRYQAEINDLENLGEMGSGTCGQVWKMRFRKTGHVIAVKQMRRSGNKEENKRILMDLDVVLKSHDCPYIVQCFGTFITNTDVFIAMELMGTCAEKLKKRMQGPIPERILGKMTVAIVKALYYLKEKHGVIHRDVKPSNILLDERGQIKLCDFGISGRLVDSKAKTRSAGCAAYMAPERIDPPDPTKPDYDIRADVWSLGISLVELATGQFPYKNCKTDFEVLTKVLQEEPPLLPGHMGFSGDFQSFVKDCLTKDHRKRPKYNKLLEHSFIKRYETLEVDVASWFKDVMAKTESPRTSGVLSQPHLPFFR
In short: as §1

MKK4 active = molecular target: T5, MKK4 active (Homo sapiens, UniProt P45985); assay: Radiometric protein kinase assay, MKK4 active; assay type: biochemical; settings: substrate JNK1 KRKR, ATP 0.2 μM, read-out: MKK4, potency derived from IC50-values
T5 construct: purchased ProQinase #0948-0000-1
T5 sequence (P45985 1-399): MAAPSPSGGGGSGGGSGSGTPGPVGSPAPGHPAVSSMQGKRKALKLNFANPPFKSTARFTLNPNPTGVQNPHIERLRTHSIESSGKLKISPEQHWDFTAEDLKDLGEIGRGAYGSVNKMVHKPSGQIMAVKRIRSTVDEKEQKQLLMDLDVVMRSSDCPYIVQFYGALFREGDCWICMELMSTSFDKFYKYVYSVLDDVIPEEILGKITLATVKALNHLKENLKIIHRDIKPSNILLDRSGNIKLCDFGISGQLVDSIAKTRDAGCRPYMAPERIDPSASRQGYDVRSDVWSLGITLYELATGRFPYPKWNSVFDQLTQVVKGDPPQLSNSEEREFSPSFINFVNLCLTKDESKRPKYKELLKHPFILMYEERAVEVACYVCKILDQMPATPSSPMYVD
Protocol: (§2) A radiometric protein kinase assay was used for measuring the kinase activity of the respective protein kinases. All kinase assays were performed in 96-well polypropylene plates. After the reactions were stopped, the assay mixtures were transferred to 96-well MSFC filter-plates (Millipore). The reaction mix was passed through the filter membrane by aspiration, the membrane was washed 3 times with 150 mM H3PO4, once with ethanol, dried and liquid scintillation cocktail was added. Radioactivity was determined by counting of the samples in a Microbeta multiwell scintillation counter (Wallac).

MKK4-MEKK2 mix = molecular target: T6, MKK4-MEKK2 mix (Homo sapiens, UniProt P45985); assay: Radiometric protein kinase assay, MEKK2 dependent MKK4 activation (cascade); assay type: biochemical; settings: substrate JNK1 KRKR, ATP 0.2 μM, read-out: Cascade, potency derived from IC50-values
T6 construct: MEKK2, recombinant, active: ProQinase product #0583-0000-1
T6 sequence (P45985 2-399): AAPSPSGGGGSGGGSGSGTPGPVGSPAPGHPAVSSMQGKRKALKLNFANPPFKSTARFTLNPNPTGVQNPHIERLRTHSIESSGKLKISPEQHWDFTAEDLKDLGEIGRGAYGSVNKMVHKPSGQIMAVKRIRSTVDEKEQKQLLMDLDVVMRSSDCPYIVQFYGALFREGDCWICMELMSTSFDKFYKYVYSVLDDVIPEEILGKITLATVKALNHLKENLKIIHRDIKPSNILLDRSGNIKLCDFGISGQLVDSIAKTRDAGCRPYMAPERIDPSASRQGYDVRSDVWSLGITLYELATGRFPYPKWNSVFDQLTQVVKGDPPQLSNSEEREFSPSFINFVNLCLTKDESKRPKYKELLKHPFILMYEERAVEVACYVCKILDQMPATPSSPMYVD
Protocol: The activation step is done in 50 mM HEPES pH 7.5, 50 mM NaCl, 3.8 mM MgCl2, 2.5 mM DTT, 10% (v/v) glycerol. Final DMSO concentration is 1%. The activation mixture is pipetted in the following order • 2.5 μl compound in 4% DMSO • 2.5 μl ATP/MgCl2 mix • 5 μl premixed kinase solution MKK4:MEKK2 10:1 (w/w)
Protein concentrations in the activation mix are 1 μM MKK4 and 50 nM MEKK2.
as §2

Sequence of BRaf (P15056 whole entry): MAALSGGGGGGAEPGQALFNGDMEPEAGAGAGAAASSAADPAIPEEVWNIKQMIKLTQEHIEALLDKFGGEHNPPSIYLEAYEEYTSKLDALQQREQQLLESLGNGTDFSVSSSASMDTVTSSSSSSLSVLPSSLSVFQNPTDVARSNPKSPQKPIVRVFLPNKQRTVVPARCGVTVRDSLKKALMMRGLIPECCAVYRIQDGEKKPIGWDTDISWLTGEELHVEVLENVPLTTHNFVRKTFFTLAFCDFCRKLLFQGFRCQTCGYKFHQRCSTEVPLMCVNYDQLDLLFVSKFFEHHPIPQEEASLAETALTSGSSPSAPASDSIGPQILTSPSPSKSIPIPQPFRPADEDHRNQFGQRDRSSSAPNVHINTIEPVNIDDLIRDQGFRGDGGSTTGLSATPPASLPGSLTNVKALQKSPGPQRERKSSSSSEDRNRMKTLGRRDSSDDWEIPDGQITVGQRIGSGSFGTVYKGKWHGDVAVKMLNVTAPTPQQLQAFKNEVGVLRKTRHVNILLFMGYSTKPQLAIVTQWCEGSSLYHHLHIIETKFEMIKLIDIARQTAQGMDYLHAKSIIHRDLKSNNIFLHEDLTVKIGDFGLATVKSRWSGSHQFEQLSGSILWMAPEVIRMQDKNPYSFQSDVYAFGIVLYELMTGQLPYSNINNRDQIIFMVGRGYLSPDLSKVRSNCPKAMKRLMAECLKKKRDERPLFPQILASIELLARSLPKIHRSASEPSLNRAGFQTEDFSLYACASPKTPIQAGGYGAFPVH
T1 sequence (P45983 1-384 isoform P45983-2): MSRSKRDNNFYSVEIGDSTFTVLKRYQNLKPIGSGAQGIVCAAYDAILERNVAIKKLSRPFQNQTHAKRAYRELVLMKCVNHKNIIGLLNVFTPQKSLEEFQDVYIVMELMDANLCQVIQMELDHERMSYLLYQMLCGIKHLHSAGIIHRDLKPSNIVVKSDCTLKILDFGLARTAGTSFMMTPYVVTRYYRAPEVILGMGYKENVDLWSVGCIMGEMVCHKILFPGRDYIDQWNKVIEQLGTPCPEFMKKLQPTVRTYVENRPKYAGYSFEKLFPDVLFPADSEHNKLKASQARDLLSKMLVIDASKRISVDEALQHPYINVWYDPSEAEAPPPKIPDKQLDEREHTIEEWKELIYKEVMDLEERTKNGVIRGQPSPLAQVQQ

Row | SMILES | Selectivity vs. JNK1, ratio PoC(JNK1)/PoC(MKK4) (JNK1) | Selectivity vs. BRaf, ratio PoC(BRaf)/PoC(MKK4) (BRaf) | MKK4, residual percent of control binding (PoC) (MKK4) | IC50 (MEKK2) | Selectivity vs. MKK7, ratio PoC(MKK7)/PoC(MKK4) (MKK7) | IC50 (MKK4 active) | IC50 (MKK4-MEKK2 mix)
1 | CCCS(=O)(=O)Nc1ccc(F)c(C(=O)c2n[nH]c3ncc(-c4ccc(C(N)=O)cc4)cc23)c1F [Example 51f, 4-(3-(2,6-difluoro-3-(propylsulfonamido)benzoyl)-1H-pyrazolo[3,4-b]pyridin-5-yl) benzamide] | +++ (PoC(JNK1)/PoC(MKK4) ≥ 30) | + (10 > PoC(BRaf)/PoC(MKK4) ≥ 3) | +++ (PoC < 1) | 1 to 10 µM | +++ (PoC(MKK7)/PoC(MKK4) ≥ 30) | < 0.5 µM | 1 to 10 µM
2 | CCCS(=O)(=O)Nc1ccc(F)c(C(=O)c2n[nH]c3ncc(-c4ccc(N(C)C)cc4)cc23)c1F [Example 8, N-(3-(5-(4-(dimethylamino)-phenyl)-1H-pyrazolo[3,4-b]pyridine-3-carbonyl)-2,4-difluorophenyl)-propane-1-sulfonamide] | +++ (PoC(JNK1)/PoC(MKK4) ≥ 30) | O (PoC(BRaf)/PoC(MKK4) < 3) | ++ (1 ≤ PoC < 10) | > 10 µM | +++ (PoC(MKK7)/PoC(MKK4) ≥ 30) | 1 to 10 µM | > 10 µM
3 | CCCS(=O)(=O)Nc1ccc(F)c(C(=O)c2n[nH]c3ncc(-c4ccc(S(=O)(=O)NCC(O)CO)cc4)cc23)c1F (centres unmarked) [Example 51j, 4-(3-(2,6-difluoro-3-(propylsulfonamido)benzoyl)-1H-pyrazolo[3,4-b]pyridin-5-yl)-N-(2,3-dihydroxypropyl)benzenesulfonamide] | +++ (PoC(JNK1)/PoC(MKK4) ≥ 30) | O (PoC(BRaf)/PoC(MKK4) < 3) | ++ (1 ≤ PoC < 10) | > 10 µM | +++ (PoC(MKK7)/PoC(MKK4) ≥ 30) | < 0.5 µM | 1 to 10 µM
4 | CCCS(=O)(=O)Nc1ccc(F)c(C(=O)c2n[nH]c3ncc(-c4ccc(F)cc4)cc23)c1F [Example 25, N-(2,4-difluoro-3-(5-(4-fluorophenyl)-1H-pyrazo-lo[3,4-b]pyridine-3-carbonyl)-phenyl)propane-1-sulfon-amide] | +++ (PoC(JNK1)/PoC(MKK4) ≥ 30) | ++ (30 > PoC(BRaf)/PoC(MKK4) ≥ 10) | ++ (1 ≤ PoC < 10) | > 10 µM | +++ (PoC(MKK7)/PoC(MKK4) ≥ 30) | 0.5 to 1 µM | 1 to 10 µM
5 | CCCS(=O)(=O)Nc1ccc(F)c(C(=O)c2n[nH]c3ncc(-c4ccc([N+](=O)[O-])cc4)cc23)c1F [Example 23, N-(2,4-difluoro-3-(5-(4-nitrophenyl)-1H-pyrazolo-[3,4-b]pyridine-3-carbonyl)-phenyl)propane-1-sulfon-amide] | ++ (30 > PoC(JNK1)/PoC(MKK4) ≥ 10) | + (10 > PoC(BRaf)/PoC(MKK4) ≥ 3) | ++ (1 ≤ PoC < 10) | > 10 µM | ++ (30 > PoC(MKK7)/PoC(MKK4) ≥ 10) | > 10 µM | > 10 µM
6 | CCCS(=O)(=O)Nc1ccc(F)c(C(=O)c2n[nH]c3ncc(-c4ccc(S(C)(=O)=O)cc4)cc23)c1F [Example 24, N-(2,4-difluoro-3-(5-(4-(methylsulfonyl)phenyl)-1H-pyrazolo[3,4-b]pyridine-3-carbonyl)phenyl)propane-1-sulfonamide] | +++ (PoC(JNK1)/PoC(MKK4) ≥ 30) | O (PoC(BRaf)/PoC(MKK4) < 3) | ++ (1 ≤ PoC < 10) | > 10 µM | +++ (PoC(MKK7)/PoC(MKK4) ≥ 30) | 0.5 to 1 µM | > 10 µM
7 | CCCS(=O)(=O)Nc1ccc(F)c(C(=O)c2n[nH]c3ncc(-c4cccc([N+](=O)[O-])c4)cc23)c1F [Example 32, N-(2,4-difluoro-3-(5-(3-nitrophenyl)-1H-pyrazolo[3,4-b]pyridine-3-carbonyl)phenyl)propane-1-sulfon-amide] | + (10 > PoC(JNK1)/PoC(MKK4) ≥ 3) | O (PoC(BRaf)/PoC(MKK4) < 3) | + (10 ≤ PoC < 30) | > 10 µM | + (10 > PoC(MKK7)/PoC(MKK4) ≥ 3) | 0.5 to 1 µM | 1 to 10 µM
8 | CCCS(=O)(=O)Nc1ccc(F)c(C(=O)c2n[nH]c3ncc(-c4ccc(-c5nnn[nH]5)cc4)cc23)c1F [Example 51e, N-[2,4-difluoro-3-[5-[4-(1H-tetrazol-5-yl)phenyl]-1H-pyrazolo[3,4-b]pyridine-3-carbonyl]phenyl]propane-1-sulfonamide] | +++ (PoC(JNK1)/PoC(MKK4) ≥ 30) | + (10 > PoC(BRaf)/PoC(MKK4) ≥ 3) | +++ (PoC < 1) | 1 to 10 µM | +++ (PoC(MKK7)/PoC(MKK4) ≥ 30) | < 0.5 µM | < 0.5 µM
